Experimental data published in article PMC5218480 (PLoS ONE, 2017).

Tested on: MV-4-11 cells
Experiment: Gene expression microarray analysis (Affymetrix PrimeView) and GSEA
Type: cell-based, human
Design: RFU PODN (11730768_x_at) / Fold change /veh PODN (11730768_x_at) / RFU LINC00158 (11744669_a_at) / Fold change /veh LINC00158 (11744669_a_at) / RFU DUSP10 (11751237_a_at) / Fold change /veh DUSP10 (11751237_a_at) / RFU ID3 (11757404_x_at) / Fold change /veh ID3 (11757404_x_at) / RFU PLEKHG5 (11737974_s_at) / Fold change /veh PLEKHG5 (11737974_s_at) / RFU LRRC4B (11730491_at) / Fold change /veh LRRC4B (11730491_at) / RFU GIMAP4 (11747438_a_at) / Fold change /veh GIMAP4 (11747438_a_at) / RFU KRT8 (11758183_x_at) / Fold change /veh KRT8 (11758183_x_at) / RFU CNN1 (11734310_a_at) / Fold change /veh CNN1 (11734310_a_at) / RFU VPS37D (11726825_at) / Fold change /veh VPS37D (11726825_at) / RFU C10orf10 (11716522_x_at) / Fold change /veh C10orf10 (11716522_x_at) / RFU KIR2DL2 /// KIR2DL4 /// KIR2DL5A /// KIR2DL5B /// KIR2DS1 /// KIR2DS2 /// KIR2DS3 /// KIR2DS4 /// KIR3DL3 /// KIR3DL3 /// KIR3DS1 (11738374_at) / Fold change /veh KIR2DL2 /// KIR2DL4 /// KIR2DL5A /// KIR2DL5B /// KIR2DS1 /// KIR2DS2 /// KIR2DS3 /// KIR2DS4 /// KIR3DL3 /// KIR3DL3 /// KIR3DS1 (11738374_at) / RFU C1QL1 (11718748_at) / Fold change /veh C1QL1 (11718748_at) / RFU TMPRSS4 (11747572_a_at) / Fold change /veh TMPRSS4 (11747572_a_at) / RFU HAMP (11756126_x_at) / Fold change /veh HAMP (11756126_x_at) / RFU RNFT2 (11725882_a_at) / Fold change /veh RNFT2 (11725882_a_at) / RFU NR4A2 (11747474_a_at) / Fold change /veh NR4A2 (11747474_a_at) / RFU ABCC12 (11746883_a_at) / Fold change /veh ABCC12 (11746883_a_at) / RFU TMEM136 (11760407_x_at) / Fold change /veh TMEM136 (11760407_x_at) / RFU CLDN22 /// WWC2 (11732394_at) / Fold change /veh CLDN22 /// WWC2 (11732394_at) / RFU HLA-DPB1 (11760878_x_at) / Fold change /veh HLA-DPB1 (11760878_x_at) / RFU SPINT1 (11716480_a_at) / Fold change /veh SPINT1 (11716480_a_at) / RFU GAP43 (11754022_s_at) / Fold change /veh GAP43 (11754022_s_at) / RFU A4GNT (11735810_at) / Fold change /veh A4GNT (11735810_at) / RFU PRB3 (11715151_x_at) / Fold change /veh PRB3 (11715151_x_at) / RFU TUBB4B (11761932_at) / Fold change /veh TUBB4B (11761932_at) / RFU CAPN14 (11732068_a_at) / Fold change /veh CAPN14 (11732068_a_at) / RFU TMCC2 (11721928_a_at) / Fold change /veh TMCC2 (11721928_a_at) / RFU IRGQ (11745062_a_at) / Fold change /veh IRGQ (11745062_a_at) / RFU FAM174B (11720279_a_at) / Fold change /veh FAM174B (11720279_a_at) / RFU TMPRSS4 (11748680_a_at) / Fold change /veh TMPRSS4 (11748680_a_at) / RFU FAM212B (11763350_a_at) / Fold change /veh FAM212B (11763350_a_at) / RFU PLEKHG5 (11743358_a_at) / Fold change /veh PLEKHG5 (11743358_a_at) / RFU ZSCAN30 (11745921_a_at) / Fold change /veh ZSCAN30 (11745921_a_at) / RFU CMKLR1 (11741424_a_at) / Fold change /veh CMKLR1 (11741424_a_at) / RFU LOC101060620 /// MAPK8IP1 (11723275_at) / Fold change /veh LOC101060620 /// MAPK8IP1 (11723275_at) / RFU SPTSSB (11747773_x_at) / Fold change /veh SPTSSB (11747773_x_at) / RFU PRSS12 (11739890_at) / Fold change /veh PRSS12 (11739890_at) / RFU BIN1 (11741810_x_at) / Fold change /veh BIN1 (11741810_x_at) / RFU WNT11 (11732464_a_at) / Fold change /veh WNT11 (11732464_a_at) / RFU C10orf10 (11716521_a_at) / Fold change /veh C10orf10 (11716521_a_at) / RFU C5orf56 (11738089_at) / Fold change /veh C5orf56 (11738089_at) / RFU CYB561 (11721691_x_at) / Fold change /veh CYB561 (11721691_x_at) / RFU ANKRD19P (11752326_a_at) / Fold change /veh ANKRD19P (11752326_a_at) / RFU OR2T12 /// OR2T33 /// OR2T8 (11738714_s_at) / Fold change /veh OR2T12 /// OR2T33 /// OR2T8 (11738714_s_at) / RFU VCAN (11748164_a_at) / Fold change /veh VCAN (11748164_a_at) / RFU JSRP1 (11732532_at) / Fold change /veh JSRP1 (11732532_at) / RFU KRTAP10-11 (11738290_x_at) / Fold change /veh KRTAP10-11 (11738290_x_at) / RFU MYO3A (11730013_a_at) / Fold change /veh MYO3A (11730013_a_at) / RFU EBF3 (11725865_a_at) / Fold change /veh EBF3 (11725865_a_at) / RFU CAMK2N1 (11719241_x_at) / Fold change /veh CAMK2N1 (11719241_x_at) / RFU C5orf56 (11738088_a_at) / Fold change /veh C5orf56 (11738088_a_at) / RFU OLFML3 (11715873_a_at) / Fold change /veh OLFML3 (11715873_a_at) / RFU LOC100653217 /// NTM (11731650_a_at) / Fold change /veh LOC100653217 /// NTM (11731650_a_at) / RFU MAPK11 (11762145_a_at) / Fold change /veh MAPK11 (11762145_a_at) / RFU FIZ1 (11724087_x_at) / Fold change /veh FIZ1 (11724087_x_at) / RFU OASL (11726364_x_at) / Fold change /veh OASL (11726364_x_at) / RFU SOX15 (11748057_x_at) / Fold change /veh SOX15 (11748057_x_at) / RFU CD79A (11719716_a_at) / Fold change /veh CD79A (11719716_a_at) / RFU HIST1H1D (11736915_at) / Fold change /veh HIST1H1D (11736915_at) / RFU CASKIN2 (11723855_a_at) / Fold change /veh CASKIN2 (11723855_a_at) / RFU LOC730098 (11760151_x_at) / Fold change /veh LOC730098 (11760151_x_at) / RFU OR4N2 (11742367_at) / Fold change /veh OR4N2 (11742367_at) / RFU PRRT2 (11749266_a_at) / Fold change /veh PRRT2 (11749266_a_at) / RFU SNX32 (11753110_a_at) / Fold change /veh SNX32 (11753110_a_at) / RFU CDHR5 (11726645_a_at) / Fold change /veh CDHR5 (11726645_a_at) / RFU RCAN1 (11760418_a_at) / Fold change /veh RCAN1 (11760418_a_at) / RFU FAM167A (11723789_a_at) / Fold change /veh FAM167A (11723789_a_at) / RFU FAM26E (11764081_at) / Fold change /veh FAM26E (11764081_at) / RFU ISYNA1 (11749810_s_at) / Fold change /veh ISYNA1 (11749810_s_at) / RFU ACY1 (11761880_at) / Fold change /veh ACY1 (11761880_at) / RFU 11764098_at / Fold change /veh 11764098_at / RFU SAMD14 (11745864_x_at) / Fold change /veh SAMD14 (11745864_x_at) / RFU NPB (11741838_a_at) / Fold change /veh NPB (11741838_a_at) / RFU TMPRSS6 (11731388_a_at) / Fold change /veh TMPRSS6 (11731388_a_at) / RFU KRTAP10-2 (11738614_at) / Fold change /veh KRTAP10-2 (11738614_at) / RFU ARHGAP8 /// PRR5-ARHGAP8 (11727945_x_at) / Fold change /veh ARHGAP8 /// PRR5-ARHGAP8 (11727945_x_at) / RFU KRTAP5-7 /// NADSYN1 (11734609_at) / Fold change /veh KRTAP5-7 /// NADSYN1 (11734609_at) / RFU RASL12 (11751679_a_at) / Fold change /veh RASL12 (11751679_a_at) / RFU CDKN2B (11736163_a_at) / Fold change /veh CDKN2B (11736163_a_at) / RFU PRF1 (11729649_at) / Fold change /veh PRF1 (11729649_at) / RFU, ZNF638 /// ZNF638-IT1 / Fold change vs veh, ZNF638 /// ZNF638-IT1 / RFU, PANK3 / Fold change vs veh, PANK3 / RFU, SH3YL1 / Fold change vs veh, SH3YL1 / RFU, ZEB2 / Fold change vs veh, ZEB2 / RFU, NRIP1 / Fold change vs veh, NRIP1 / RFU, PTTG1IP / Fold change vs veh, PTTG1IP / RFU, CAPN2 / Fold change vs veh, CAPN2 / RFU, MED14 / Fold change vs veh, MED14 / RFU, SNORA58 / Fold change vs veh, SNORA58 / RFU, C1orf63 / Fold change vs veh, C1orf63 / RFU, LRRFIP1 / Fold change vs veh, LRRFIP1 / RFU, NDUFAF7 / Fold change vs veh, NDUFAF7 / RFU, SLC12A2 / Fold change vs veh, SLC12A2 / RFU, IBTK / Fold change vs veh, IBTK / RFU, ESF1 / Fold change vs veh, ESF1 / Fold change vs veh, TMEM50B / RFU, TAOK1 / Fold change vs veh, TAOK1 / RFU, ACBD3 / Fold change vs veh, ACBD3 / RFU, TMA16 / Fold change vs veh, TMA16 / RFU, RWDD3 / Fold change vs veh, RWDD3 / RFU, BCAT1 / Fold change vs veh, BCAT1 / RFU, EDEM3 / Fold change vs veh, EDEM3 / RFU, TMEM33 / Fold change vs veh, TMEM33 / RFU, WDR75 / Fold change vs veh, WDR75 / RFU, AHCTF1 / Fold change vs veh, AHCTF1 / RFU, TFRC / Fold change vs veh, TFRC / RFU, ZDHHC17 / Fold change vs veh, ZDHHC17 / RFU, NOM1 / Fold change vs veh, NOM1 / RFU, ARL8B / Fold change vs veh, ARL8B / RFU, ZBTB11 / Fold change vs veh, ZBTB11 / RFU, TAMM41 / Fold change vs veh, TAMM41 / RFU, KIAA1704 /// LOC100996395 / Fold change vs veh, KIAA1704 /// LOC100996395 / RFU, ING1 / Fold change vs veh, ING1 / RFU, TRMT61B / Fold change vs veh, TRMT61B / RFU, FUBP3 / Fold change vs veh, FUBP3 / RFU, TP53 / Fold change vs veh, TP53 / RFU, TNKS2 / Fold change vs veh, TNKS2 / RFU, ZFP14 / Fold change vs veh, ZFP14 / RFU, ACTR2 / Fold change vs veh, ACTR2 / RFU, PPP3R1 / Fold change vs veh, PPP3R1 / RFU, PIK3R1 / Fold change vs veh, PIK3R1 / RFU, HNRNPA1 / Fold change vs veh, HNRNPA1 / RFU, RNF170 / Fold change vs veh, RNF170 / RFU, ZNF28 / Fold change vs veh, ZNF28 / RFU, RNGTT / Fold change vs veh, RNGTT / RFU, OGT / Fold change vs veh, OGT / RFU, BRD1 / Fold change vs veh, BRD1 / RFU, MARS / Fold change vs veh, MARS / RFU, ZNF655 / Fold change vs veh, ZNF655 / RFU, FAHD1 / Fold change vs veh, FAHD1 / RFU, BDP1 / Fold change vs veh, BDP1 / RFU, LRRCC1 / Fold change vs veh, LRRCC1 / RFU, ARID1A / Fold change vs veh, ARID1A / RFU, ZNF146 / Fold change vs veh, ZNF146 / RFU, ZNF330 / Fold change vs veh, ZNF330 / RFU, GPN3 / Fold change vs veh, GPN3 / RFU, C9orf123 / Fold change vs veh, C9orf123 / RFU, N4BP2L2 / Fold change vs veh, N4BP2L2 / RFU, ARFIP1 / Fold change vs veh, ARFIP1 / RFU, FAM179B / Fold change vs veh, FAM179B / RFU, BCL10 / Fold change vs veh, BCL10 / RFU, UHRF1BP1L / Fold change vs veh, UHRF1BP1L / RFU, BET1 / Fold change vs veh, BET1 / RFU, CNOT2 / Fold change vs veh, CNOT2 / RFU, ZNF268 / Fold change vs veh, ZNF268 / Fold change vs veh, ZNF507 / RFU, DGCR2 / Fold change vs veh, DGCR2 / RFU, WDSUB1 / Fold change vs veh, WDSUB1 / Fold change vs veh, HSP90B1 /// MIR3652 / RFU, ADSS / Fold change vs veh, ADSS / RFU, GK / Fold change vs veh, GK / RFU, ZNF148 / Fold change vs veh, ZNF148 / RFU, TAF9 / Fold change vs veh, TAF9 / RFU, SLC1A5 / Fold change vs veh, SLC1A5 / RFU, SLMO2 / Fold change vs veh, SLMO2 / RFU, ABCC4 / Fold change vs veh, ABCC4 / RFU, LOC101060439 /// RAP1B / Fold change vs veh, LOC101060439 /// RAP1B / RFU, RFX7 / Fold change vs veh, RFX7 / RFU, GTPBP10 / Fold change vs veh, GTPBP10 / RFU, CNEP1R1 / Fold change vs veh, CNEP1R1 / RFU, BIVM-ERCC5 /// ERCC5 / Fold change vs veh, BIVM-ERCC5 /// ERCC5 / RFU, ILF3 / Fold change vs veh, ILF3 / RFU 11762660_at / Fold change /veh 11762660_at / RFU VCAN (11757783_s_at) / Fold change /veh VCAN (11757783_s_at) / RFU DDX43 (11728927_at) / Fold change /veh DDX43 (11728927_at) / RFU KRT8 (11758188_x_at) / Fold change /veh KRT8 (11758188_x_at) / RFU NKD1 (11759106_at) / Fold change /veh NKD1 (11759106_at) / RFU SRD5A1 (11742802_a_at) / Fold change /veh SRD5A1 (11742802_a_at) / RFU TPSAB1 /// TPSB2 (11721975_s_at) / Fold change /veh TPSAB1 /// TPSB2 (11721975_s_at) / RFU GSTM3 (11746129_a_at) / Fold change /veh GSTM3 (11746129_a_at) / RFU IL23R (11737362_x_at) / Fold change /veh IL23R (11737362_x_at) / RFU TMEM51 (11727254_a_at) / Fold change /veh TMEM51 (11727254_a_at) / RFU PIWIL2 (11732686_x_at) / Fold change /veh PIWIL2 (11732686_x_at) / RFU ORM1 (11744905_x_at) / Fold change /veh ORM1 (11744905_x_at) / RFU CCDC152 (11743942_at) / Fold change /veh CCDC152 (11743942_at) / RFU ECM1 (11717891_a_at) / Fold change /veh ECM1 (11717891_a_at) / RFU IL23R (11748794_a_at) / Fold change /veh IL23R (11748794_a_at) / RFU TNFAIP8L3 (11732012_x_at) / Fold change /veh TNFAIP8L3 (11732012_x_at) / RFU MBOAT4 (11741988_at) / Fold change /veh MBOAT4 (11741988_at) / RFU 11764193_at / Fold change /veh 11764193_at / RFU TMEM53 (11763286_at) / Fold change /veh TMEM53 (11763286_at) / RFU MAGEB2 (11727129_at) / Fold change /veh MAGEB2 (11727129_at) / RFU TMEM200A (11744735_a_at) / Fold change /veh TMEM200A (11744735_a_at) / RFU CCDC152 (11751479_a_at) / Fold change /veh CCDC152 (11751479_a_at) / RFU FAM211A (11726209_a_at) / Fold change /veh FAM211A (11726209_a_at) / RFU RGS16 (11746705_a_at) / Fold change /veh RGS16 (11746705_a_at) / RFU VCAN (11755009_s_at) / Fold change /veh VCAN (11755009_s_at) / RFU RHOB (11743442_s_at) / Fold change /veh RHOB (11743442_s_at) / RFU RGS16 (11720943_a_at) / Fold change /veh RGS16 (11720943_a_at) / RFU RGS16 (11720944_at) / Fold change /veh RGS16 (11720944_at) / RFU, VPS4B / Fold change vs veh, VPS4B / RFU, CREB1 / Fold change vs veh, CREB1 / RFU, DNAJC13 / Fold change vs veh, DNAJC13 / RFU, GNAQ / Fold change vs veh, GNAQ / RFU, CDK5R1 / Fold change vs veh, CDK5R1 / RFU, ZRANB3 / Fold change vs veh, ZRANB3 / RFU, CUL4A / Fold change vs veh, CUL4A / RFU, CCNY / Fold change vs veh, CCNY / RFU, UFL1 / Fold change vs veh, UFL1 / RFU, COG3 / Fold change vs veh, COG3 / RFU, DIAPH2 / Fold change vs veh, DIAPH2 / RFU, SKA2 / Fold change vs veh, SKA2 / RFU, AFF3 / Fold change vs veh, AFF3 / RFU, LMF1 / Fold change vs veh, LMF1 / RFU, IPO11 / Fold change vs veh, IPO11 / RFU, DFFB / Fold change vs veh, DFFB / RFU, FOXP1 / Fold change vs veh, FOXP1 / RFU, CARD8 / Fold change vs veh, CARD8 / RFU, STRN3 / Fold change vs veh, STRN3 / RFU, ADK / Fold change vs veh, ADK / RFU, RASSF2 / Fold change vs veh, RASSF2 / RFU, WIPF1 / Fold change vs veh, WIPF1 / RFU, LARP1B / Fold change vs veh, LARP1B / RFU, RASA1 / Fold change vs veh, RASA1 / RFU, RB1 / Fold change vs veh, RB1 / RFU, PPFIA1 / Fold change vs veh, PPFIA1 / RFU, MAT2A / Fold change vs veh, MAT2A / RFU, CCT5 / Fold change vs veh, CCT5 / RFU, WDR92 / Fold change vs veh, WDR92 / RFU, CUX1 / Fold change vs veh, CUX1 / RFU, TTC7A / Fold change vs veh, TTC7A / RFU, TMEM135 / Fold change vs veh, TMEM135 / RFU, DEPTOR / Fold change vs veh, DEPTOR / RFU, CPM / Fold change vs veh, CPM / RFU, DNAJB6 / Fold change vs veh, DNAJB6 / RFU, CACNA2D3 / Fold change vs veh, CACNA2D3 / RFU, DTX4 / Fold change vs veh, DTX4 / RFU, TFCP2 / Fold change vs veh, TFCP2 / RFU, GMCL1 /// GMCL1P1 / Fold change vs veh, GMCL1 /// GMCL1P1 / RFU, AEBP2 / Fold change vs veh, AEBP2 / RFU, SNHG1 /// SNORD22 /// SNORD25 /// SNORD26 /// SNORD27 /// SNORD28 /// SNORD29 /// SNORD31 / Fold change vs veh, SNHG1 /// SNORD22 /// SNORD25 /// SNORD26 /// SNORD27 /// SNORD28 /// SNORD29 /// SNORD31 / Fold change (Aza/veh), C12orf56 (ProbeSet 11735607_a_at) / Fold change (ACY-1035/veh), C12orf56 (ProbeSet 11735607_a_at) / Fold change (Aza/veh), FGFR1OP (ProbeSet 11751329_s_at) / Fold change (ACY-1035/veh), FGFR1OP (ProbeSet 11751329_s_at) / Fold change (Aza/veh), VPS36 (ProbeSet 11739960_a_at) / Fold change (ACY-1035/veh), VPS36 (ProbeSet 11739960_a_at) / RFU SYPL1 (11715823_x_at) / Fold change /veh SYPL1 (11715823_x_at) / RFU IGFBP7 (11715501_s_at) / Fold change /veh IGFBP7 (11715501_s_at) / RFU REEP3 (11722064_at) / Fold change /veh REEP3 (11722064_at) / RFU IGLL1 (11728026_x_at) / Fold change /veh IGLL1 (11728026_x_at): dose or concentration left out as unconfirmed
Details: MV-4-11 cells, 48 hours

Nc1ncn([C@@H]2O[C@H](CO)[C@@H](O)[C@H]2O)c(=O)n1 [azacitidine]
Fold change /veh C1QL1 (11718748_at): 0.93
